Paper PMC5218480 (PLoS ONE, 2017)

Test system: MV-4-11 cells
Test: Gene expression microarray analysis (Affymetrix PrimeView) and GSEA
Type: cell-based, human
Parameters: RFU PODN (11730768_x_at) / Fold change /veh PODN (11730768_x_at) / RFU LINC00158 (11744669_a_at) / Fold change /veh LINC00158 (11744669_a_at) / RFU DUSP10 (11751237_a_at) / Fold change /veh DUSP10 (11751237_a_at) / RFU ID3 (11757404_x_at) / Fold change /veh ID3 (11757404_x_at) / RFU PLEKHG5 (11737974_s_at) / Fold change /veh PLEKHG5 (11737974_s_at) / RFU LRRC4B (11730491_at) / Fold change /veh LRRC4B (11730491_at) / RFU GIMAP4 (11747438_a_at) / Fold change /veh GIMAP4 (11747438_a_at) / RFU KRT8 (11758183_x_at) / Fold change /veh KRT8 (11758183_x_at) / RFU CNN1 (11734310_a_at) / Fold change /veh CNN1 (11734310_a_at) / RFU VPS37D (11726825_at) / Fold change /veh VPS37D (11726825_at) / RFU C10orf10 (11716522_x_at) / Fold change /veh C10orf10 (11716522_x_at) / RFU KIR2DL2 /// KIR2DL4 /// KIR2DL5A /// KIR2DL5B /// KIR2DS1 /// KIR2DS2 /// KIR2DS3 /// KIR2DS4 /// KIR3DL3 /// KIR3DL3 /// KIR3DS1 (11738374_at) / Fold change /veh KIR2DL2 /// KIR2DL4 /// KIR2DL5A /// KIR2DL5B /// KIR2DS1 /// KIR2DS2 /// KIR2DS3 /// KIR2DS4 /// KIR3DL3 /// KIR3DL3 /// KIR3DS1 (11738374_at) / RFU C1QL1 (11718748_at) / Fold change /veh C1QL1 (11718748_at) / RFU TMPRSS4 (11747572_a_at) / Fold change /veh TMPRSS4 (11747572_a_at) / RFU HAMP (11756126_x_at) / Fold change /veh HAMP (11756126_x_at) / RFU RNFT2 (11725882_a_at) / Fold change /veh RNFT2 (11725882_a_at) / RFU NR4A2 (11747474_a_at) / Fold change /veh NR4A2 (11747474_a_at) / RFU ABCC12 (11746883_a_at) / Fold change /veh ABCC12 (11746883_a_at) / RFU TMEM136 (11760407_x_at) / Fold change /veh TMEM136 (11760407_x_at) / RFU CLDN22 /// WWC2 (11732394_at) / Fold change /veh CLDN22 /// WWC2 (11732394_at) / RFU HLA-DPB1 (11760878_x_at) / Fold change /veh HLA-DPB1 (11760878_x_at) / RFU SPINT1 (11716480_a_at) / Fold change /veh SPINT1 (11716480_a_at) / RFU GAP43 (11754022_s_at) / Fold change /veh GAP43 (11754022_s_at) / RFU A4GNT (11735810_at) / Fold change /veh A4GNT (11735810_at) / RFU PRB3 (11715151_x_at) / Fold change /veh PRB3 (11715151_x_at) / RFU TUBB4B (11761932_at) / Fold change /veh TUBB4B (11761932_at) / RFU CAPN14 (11732068_a_at) / Fold change /veh CAPN14 (11732068_a_at) / RFU TMCC2 (11721928_a_at) / Fold change /veh TMCC2 (11721928_a_at) / RFU IRGQ (11745062_a_at) / Fold change /veh IRGQ (11745062_a_at) / RFU FAM174B (11720279_a_at) / Fold change /veh FAM174B (11720279_a_at) / RFU TMPRSS4 (11748680_a_at) / Fold change /veh TMPRSS4 (11748680_a_at) / RFU FAM212B (11763350_a_at) / Fold change /veh FAM212B (11763350_a_at) / RFU PLEKHG5 (11743358_a_at) / Fold change /veh PLEKHG5 (11743358_a_at) / RFU ZSCAN30 (11745921_a_at) / Fold change /veh ZSCAN30 (11745921_a_at) / RFU CMKLR1 (11741424_a_at) / Fold change /veh CMKLR1 (11741424_a_at) / RFU LOC101060620 /// MAPK8IP1 (11723275_at) / Fold change /veh LOC101060620 /// MAPK8IP1 (11723275_at) / RFU SPTSSB (11747773_x_at) / Fold change /veh SPTSSB (11747773_x_at) / RFU PRSS12 (11739890_at) / Fold change /veh PRSS12 (11739890_at) / RFU BIN1 (11741810_x_at) / Fold change /veh BIN1 (11741810_x_at) / RFU WNT11 (11732464_a_at) / Fold change /veh WNT11 (11732464_a_at) / RFU C10orf10 (11716521_a_at) / Fold change /veh C10orf10 (11716521_a_at) / RFU C5orf56 (11738089_at) / Fold change /veh C5orf56 (11738089_at) / RFU CYB561 (11721691_x_at) / Fold change /veh CYB561 (11721691_x_at) / RFU ANKRD19P (11752326_a_at) / Fold change /veh ANKRD19P (11752326_a_at) / RFU OR2T12 /// OR2T33 /// OR2T8 (11738714_s_at) / Fold change /veh OR2T12 /// OR2T33 /// OR2T8 (11738714_s_at) / RFU VCAN (11748164_a_at) / Fold change /veh VCAN (11748164_a_at) / RFU JSRP1 (11732532_at) / Fold change /veh JSRP1 (11732532_at) / RFU KRTAP10-11 (11738290_x_at) / Fold change /veh KRTAP10-11 (11738290_x_at) / RFU MYO3A (11730013_a_at) / Fold change /veh MYO3A (11730013_a_at) / RFU EBF3 (11725865_a_at) / Fold change /veh EBF3 (11725865_a_at) / RFU CAMK2N1 (11719241_x_at) / Fold change /veh CAMK2N1 (11719241_x_at) / RFU C5orf56 (11738088_a_at) / Fold change /veh C5orf56 (11738088_a_at) / RFU OLFML3 (11715873_a_at) / Fold change /veh OLFML3 (11715873_a_at) / RFU LOC100653217 /// NTM (11731650_a_at) / Fold change /veh LOC100653217 /// NTM (11731650_a_at) / RFU MAPK11 (11762145_a_at) / Fold change /veh MAPK11 (11762145_a_at) / RFU FIZ1 (11724087_x_at) / Fold change /veh FIZ1 (11724087_x_at) / RFU OASL (11726364_x_at) / Fold change /veh OASL (11726364_x_at) / RFU SOX15 (11748057_x_at) / Fold change /veh SOX15 (11748057_x_at) / RFU CD79A (11719716_a_at) / Fold change /veh CD79A (11719716_a_at) / RFU HIST1H1D (11736915_at) / Fold change /veh HIST1H1D (11736915_at) / RFU CASKIN2 (11723855_a_at) / Fold change /veh CASKIN2 (11723855_a_at) / RFU LOC730098 (11760151_x_at) / Fold change /veh LOC730098 (11760151_x_at) / RFU OR4N2 (11742367_at) / Fold change /veh OR4N2 (11742367_at) / RFU PRRT2 (11749266_a_at) / Fold change /veh PRRT2 (11749266_a_at) / RFU SNX32 (11753110_a_at) / Fold change /veh SNX32 (11753110_a_at) / RFU CDHR5 (11726645_a_at) / Fold change /veh CDHR5 (11726645_a_at) / RFU RCAN1 (11760418_a_at) / Fold change /veh RCAN1 (11760418_a_at) / RFU FAM167A (11723789_a_at) / Fold change /veh FAM167A (11723789_a_at) / RFU FAM26E (11764081_at) / Fold change /veh FAM26E (11764081_at) / RFU ISYNA1 (11749810_s_at) / Fold change /veh ISYNA1 (11749810_s_at) / RFU ACY1 (11761880_at) / Fold change /veh ACY1 (11761880_at) / RFU 11764098_at / Fold change /veh 11764098_at / RFU SAMD14 (11745864_x_at) / Fold change /veh SAMD14 (11745864_x_at) / RFU NPB (11741838_a_at) / Fold change /veh NPB (11741838_a_at) / RFU TMPRSS6 (11731388_a_at) / Fold change /veh TMPRSS6 (11731388_a_at) / RFU KRTAP10-2 (11738614_at) / Fold change /veh KRTAP10-2 (11738614_at) / RFU ARHGAP8 /// PRR5-ARHGAP8 (11727945_x_at) / Fold change /veh ARHGAP8 /// PRR5-ARHGAP8 (11727945_x_at) / RFU KRTAP5-7 /// NADSYN1 (11734609_at) / Fold change /veh KRTAP5-7 /// NADSYN1 (11734609_at) / RFU RASL12 (11751679_a_at) / Fold change /veh RASL12 (11751679_a_at) / RFU CDKN2B (11736163_a_at) / Fold change /veh CDKN2B (11736163_a_at) / RFU PRF1 (11729649_at) / Fold change /veh PRF1 (11729649_at) / RFU, ZNF638 /// ZNF638-IT1 / Fold change vs veh, ZNF638 /// ZNF638-IT1 / RFU, PANK3 / Fold change vs veh, PANK3 / RFU, SH3YL1 / Fold change vs veh, SH3YL1 / RFU, ZEB2 / Fold change vs veh, ZEB2 / RFU, NRIP1 / Fold change vs veh, NRIP1 / RFU, PTTG1IP / Fold change vs veh, PTTG1IP / RFU, CAPN2 / Fold change vs veh, CAPN2 / RFU, MED14 / Fold change vs veh, MED14 / RFU, SNORA58 / Fold change vs veh, SNORA58 / RFU, C1orf63 / Fold change vs veh, C1orf63 / RFU, LRRFIP1 / Fold change vs veh, LRRFIP1 / RFU, NDUFAF7 / Fold change vs veh, NDUFAF7 / RFU, SLC12A2 / Fold change vs veh, SLC12A2 / RFU, IBTK / Fold change vs veh, IBTK / RFU, ESF1 / Fold change vs veh, ESF1 / Fold change vs veh, TMEM50B / RFU, TAOK1 / Fold change vs veh, TAOK1 / RFU, ACBD3 / Fold change vs veh, ACBD3 / RFU, TMA16 / Fold change vs veh, TMA16 / RFU, RWDD3 / Fold change vs veh, RWDD3 / RFU, BCAT1 / Fold change vs veh, BCAT1 / RFU, EDEM3 / Fold change vs veh, EDEM3 / RFU, TMEM33 / Fold change vs veh, TMEM33 / RFU, WDR75 / Fold change vs veh, WDR75 / RFU, AHCTF1 / Fold change vs veh, AHCTF1 / RFU, TFRC / Fold change vs veh, TFRC / RFU, ZDHHC17 / Fold change vs veh, ZDHHC17 / RFU, NOM1 / Fold change vs veh, NOM1 / RFU, ARL8B / Fold change vs veh, ARL8B / RFU, ZBTB11 / Fold change vs veh, ZBTB11 / RFU, TAMM41 / Fold change vs veh, TAMM41 / RFU, KIAA1704 /// LOC100996395 / Fold change vs veh, KIAA1704 /// LOC100996395 / RFU, ING1 / Fold change vs veh, ING1 / RFU, TRMT61B / Fold change vs veh, TRMT61B / RFU, FUBP3 / Fold change vs veh, FUBP3 / RFU, TP53 / Fold change vs veh, TP53 / RFU, TNKS2 / Fold change vs veh, TNKS2 / RFU, ZFP14 / Fold change vs veh, ZFP14 / RFU, ACTR2 / Fold change vs veh, ACTR2 / RFU, PPP3R1 / Fold change vs veh, PPP3R1 / RFU, PIK3R1 / Fold change vs veh, PIK3R1 / RFU, HNRNPA1 / Fold change vs veh, HNRNPA1 / RFU, RNF170 / Fold change vs veh, RNF170 / RFU, ZNF28 / Fold change vs veh, ZNF28 / RFU, RNGTT / Fold change vs veh, RNGTT / RFU, OGT / Fold change vs veh, OGT / RFU, BRD1 / Fold change vs veh, BRD1 / RFU, MARS / Fold change vs veh, MARS / RFU, ZNF655 / Fold change vs veh, ZNF655 / RFU, FAHD1 / Fold change vs veh, FAHD1 / RFU, BDP1 / Fold change vs veh, BDP1 / RFU, LRRCC1 / Fold change vs veh, LRRCC1 / RFU, ARID1A / Fold change vs veh, ARID1A / RFU, ZNF146 / Fold change vs veh, ZNF146 / RFU, ZNF330 / Fold change vs veh, ZNF330 / RFU, GPN3 / Fold change vs veh, GPN3 / RFU, C9orf123 / Fold change vs veh, C9orf123 / RFU, N4BP2L2 / Fold change vs veh, N4BP2L2 / RFU, ARFIP1 / Fold change vs veh, ARFIP1 / RFU, FAM179B / Fold change vs veh, FAM179B / RFU, BCL10 / Fold change vs veh, BCL10 / RFU, UHRF1BP1L / Fold change vs veh, UHRF1BP1L / RFU, BET1 / Fold change vs veh, BET1 / RFU, CNOT2 / Fold change vs veh, CNOT2 / RFU, ZNF268 / Fold change vs veh, ZNF268 / Fold change vs veh, ZNF507 / RFU, DGCR2 / Fold change vs veh, DGCR2 / RFU, WDSUB1 / Fold change vs veh, WDSUB1 / Fold change vs veh, HSP90B1 /// MIR3652 / RFU, ADSS / Fold change vs veh, ADSS / RFU, GK / Fold change vs veh, GK / RFU, ZNF148 / Fold change vs veh, ZNF148 / RFU, TAF9 / Fold change vs veh, TAF9 / RFU, SLC1A5 / Fold change vs veh, SLC1A5 / RFU, SLMO2 / Fold change vs veh, SLMO2 / RFU, ABCC4 / Fold change vs veh, ABCC4 / RFU, LOC101060439 /// RAP1B / Fold change vs veh, LOC101060439 /// RAP1B / RFU, RFX7 / Fold change vs veh, RFX7 / RFU, GTPBP10 / Fold change vs veh, GTPBP10 / RFU, CNEP1R1 / Fold change vs veh, CNEP1R1 / RFU, BIVM-ERCC5 /// ERCC5 / Fold change vs veh, BIVM-ERCC5 /// ERCC5 / RFU, ILF3 / Fold change vs veh, ILF3 / RFU 11762660_at / Fold change /veh 11762660_at / RFU VCAN (11757783_s_at) / Fold change /veh VCAN (11757783_s_at) / RFU DDX43 (11728927_at) / Fold change /veh DDX43 (11728927_at) / RFU KRT8 (11758188_x_at) / Fold change /veh KRT8 (11758188_x_at) / RFU NKD1 (11759106_at) / Fold change /veh NKD1 (11759106_at) / RFU SRD5A1 (11742802_a_at) / Fold change /veh SRD5A1 (11742802_a_at) / RFU TPSAB1 /// TPSB2 (11721975_s_at) / Fold change /veh TPSAB1 /// TPSB2 (11721975_s_at) / RFU GSTM3 (11746129_a_at) / Fold change /veh GSTM3 (11746129_a_at) / RFU IL23R (11737362_x_at) / Fold change /veh IL23R (11737362_x_at) / RFU TMEM51 (11727254_a_at) / Fold change /veh TMEM51 (11727254_a_at) / RFU PIWIL2 (11732686_x_at) / Fold change /veh PIWIL2 (11732686_x_at) / RFU ORM1 (11744905_x_at) / Fold change /veh ORM1 (11744905_x_at) / RFU CCDC152 (11743942_at) / Fold change /veh CCDC152 (11743942_at) / RFU ECM1 (11717891_a_at) / Fold change /veh ECM1 (11717891_a_at) / RFU IL23R (11748794_a_at) / Fold change /veh IL23R (11748794_a_at) / RFU TNFAIP8L3 (11732012_x_at) / Fold change /veh TNFAIP8L3 (11732012_x_at) / RFU MBOAT4 (11741988_at) / Fold change /veh MBOAT4 (11741988_at) / RFU 11764193_at / Fold change /veh 11764193_at / RFU TMEM53 (11763286_at) / Fold change /veh TMEM53 (11763286_at) / RFU MAGEB2 (11727129_at) / Fold change /veh MAGEB2 (11727129_at) / RFU TMEM200A (11744735_a_at) / Fold change /veh TMEM200A (11744735_a_at) / RFU CCDC152 (11751479_a_at) / Fold change /veh CCDC152 (11751479_a_at) / RFU FAM211A (11726209_a_at) / Fold change /veh FAM211A (11726209_a_at) / RFU RGS16 (11746705_a_at) / Fold change /veh RGS16 (11746705_a_at) / RFU VCAN (11755009_s_at) / Fold change /veh VCAN (11755009_s_at) / RFU RHOB (11743442_s_at) / Fold change /veh RHOB (11743442_s_at) / RFU RGS16 (11720943_a_at) / Fold change /veh RGS16 (11720943_a_at) / RFU RGS16 (11720944_at) / Fold change /veh RGS16 (11720944_at) / RFU, VPS4B / Fold change vs veh, VPS4B / RFU, CREB1 / Fold change vs veh, CREB1 / RFU, DNAJC13 / Fold change vs veh, DNAJC13 / RFU, GNAQ / Fold change vs veh, GNAQ / RFU, CDK5R1 / Fold change vs veh, CDK5R1 / RFU, ZRANB3 / Fold change vs veh, ZRANB3 / RFU, CUL4A / Fold change vs veh, CUL4A / RFU, CCNY / Fold change vs veh, CCNY / RFU, UFL1 / Fold change vs veh, UFL1 / RFU, COG3 / Fold change vs veh, COG3 / RFU, DIAPH2 / Fold change vs veh, DIAPH2 / RFU, SKA2 / Fold change vs veh, SKA2 / RFU, AFF3 / Fold change vs veh, AFF3 / RFU, LMF1 / Fold change vs veh, LMF1 / RFU, IPO11 / Fold change vs veh, IPO11 / RFU, DFFB / Fold change vs veh, DFFB / RFU, FOXP1 / Fold change vs veh, FOXP1 / RFU, CARD8 / Fold change vs veh, CARD8 / RFU, STRN3 / Fold change vs veh, STRN3 / RFU, ADK / Fold change vs veh, ADK / RFU, RASSF2 / Fold change vs veh, RASSF2 / RFU, WIPF1 / Fold change vs veh, WIPF1 / RFU, LARP1B / Fold change vs veh, LARP1B / RFU, RASA1 / Fold change vs veh, RASA1 / RFU, RB1 / Fold change vs veh, RB1 / RFU, PPFIA1 / Fold change vs veh, PPFIA1 / RFU, MAT2A / Fold change vs veh, MAT2A / RFU, CCT5 / Fold change vs veh, CCT5 / RFU, WDR92 / Fold change vs veh, WDR92 / RFU, CUX1 / Fold change vs veh, CUX1 / RFU, TTC7A / Fold change vs veh, TTC7A / RFU, TMEM135 / Fold change vs veh, TMEM135 / RFU, DEPTOR / Fold change vs veh, DEPTOR / RFU, CPM / Fold change vs veh, CPM / RFU, DNAJB6 / Fold change vs veh, DNAJB6 / RFU, CACNA2D3 / Fold change vs veh, CACNA2D3 / RFU, DTX4 / Fold change vs veh, DTX4 / RFU, TFCP2 / Fold change vs veh, TFCP2 / RFU, GMCL1 /// GMCL1P1 / Fold change vs veh, GMCL1 /// GMCL1P1 / RFU, AEBP2 / Fold change vs veh, AEBP2 / RFU, SNHG1 /// SNORD22 /// SNORD25 /// SNORD26 /// SNORD27 /// SNORD28 /// SNORD29 /// SNORD31 / Fold change vs veh, SNHG1 /// SNORD22 /// SNORD25 /// SNORD26 /// SNORD27 /// SNORD28 /// SNORD29 /// SNORD31 / Fold change (Aza/veh), C12orf56 (ProbeSet 11735607_a_at) / Fold change (ACY-1035/veh), C12orf56 (ProbeSet 11735607_a_at) / Fold change (Aza/veh), FGFR1OP (ProbeSet 11751329_s_at) / Fold change (ACY-1035/veh), FGFR1OP (ProbeSet 11751329_s_at) / Fold change (Aza/veh), VPS36 (ProbeSet 11739960_a_at) / Fold change (ACY-1035/veh), VPS36 (ProbeSet 11739960_a_at) / RFU SYPL1 (11715823_x_at) / Fold change /veh SYPL1 (11715823_x_at) / RFU IGFBP7 (11715501_s_at) / Fold change /veh IGFBP7 (11715501_s_at) / RFU REEP3 (11722064_at) / Fold change /veh REEP3 (11722064_at) / RFU IGLL1 (11728026_x_at) / Fold change /veh IGLL1 (11728026_x_at): dose or concentration left out as unconfirmed
Details: MV-4-11 cells, 48 hours

Nc1ccc(-c2cccs2)cc1NC(=O)c1ccc2c(c1)cc(C1CC1)n2CCN1CCOCC1 [ACY-1035]
Fold change /veh HAMP (11756126_x_at): 0.97
